The test system of data set [1] is Mus musculus. Kind of data set: Antiinflammatory activity in topically applied oxazolone-induced chronic skin inflammation hairless SKH1 mouse model assessed as decrease in TNFalpha secretion applied topically for 10 days in combination with oxazolone. Format: functional, organism-based.
Data set [2] in a line: Aqueous solubility of the compound in PBS at pH 7.4 at 20 degC after 24 hrs by HPLC analysis. Type of data set: physicochemical.
Data set [3] has as its system Salmonella typhimurium. Kind of data set: Mutagenicity in Salmonella typhimurium TA98 in presence of rat S9 fraction by Ames test. Type of data set: toxicity, organism-based. Particulars: salmonella enterica subsp. enterica serovar typhimurium.
Data set [4] relates to Salmonella typhimurium. Kind of data set: Mutagenicity in Salmonella typhimurium TA98 in absence of rat S9 fraction by Ames test. Type of data set: toxicity, organism-based. The conditions noted are these: salmonella enterica subsp. enterica serovar typhimurium.
The nature of data set [5]: Intrinsic clearance in human hepatocytes assessed per million cells at 1 uM by LC-MS/MS analysis. Format: ADME, cell-based, Hepatocyte. The conditions noted are these: human hepatocytes, read-out: CLH.
For data set [6], the system named is Mus musculus. Kind of data set: Antiinflammatory activity in topically applied oxazolone-induced chronic skin inflammation hairless SKH1 mouse model assessed as decrease in epidermis thickening applied topically for 10 days in combination with oxazolone. Type of data set: functional, organism-based.
Data set [7] in a line: Photoirritancy factor, ratio of EC50 for human neonatal keratinocytes under dark condition to EC50 for human neonatal keratinocytes under 5 J/cm2 UV light exposure. Format: toxicity. The conditions noted are these: read-out: Ratio EC50.
In data set [8] the target is T1, Disintegrin and metalloproteinase domain-containing protein 10 (Homo sapiens, UniProt O14672).
T1 sequence (O14672 whole entry): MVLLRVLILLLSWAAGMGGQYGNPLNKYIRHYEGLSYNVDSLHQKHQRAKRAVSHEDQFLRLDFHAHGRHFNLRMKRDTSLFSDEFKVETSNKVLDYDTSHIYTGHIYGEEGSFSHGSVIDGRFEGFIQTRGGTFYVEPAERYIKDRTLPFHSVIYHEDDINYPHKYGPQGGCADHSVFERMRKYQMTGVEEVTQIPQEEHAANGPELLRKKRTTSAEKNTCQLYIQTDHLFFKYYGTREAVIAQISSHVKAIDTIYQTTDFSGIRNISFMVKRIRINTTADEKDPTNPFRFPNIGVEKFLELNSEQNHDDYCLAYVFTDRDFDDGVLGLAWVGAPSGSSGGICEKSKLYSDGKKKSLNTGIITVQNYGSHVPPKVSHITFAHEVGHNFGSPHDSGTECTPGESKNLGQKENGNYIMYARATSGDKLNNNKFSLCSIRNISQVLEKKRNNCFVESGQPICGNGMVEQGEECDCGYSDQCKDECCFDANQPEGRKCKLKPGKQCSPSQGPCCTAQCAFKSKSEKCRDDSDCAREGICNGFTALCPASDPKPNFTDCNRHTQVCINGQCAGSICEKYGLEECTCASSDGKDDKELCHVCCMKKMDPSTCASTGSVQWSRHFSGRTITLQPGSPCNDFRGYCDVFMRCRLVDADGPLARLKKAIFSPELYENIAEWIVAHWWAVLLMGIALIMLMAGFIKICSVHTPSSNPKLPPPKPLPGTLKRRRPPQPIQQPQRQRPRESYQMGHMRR
Briefly: Inhibition of ADAM10 (unknown origin).

Data set [9] has as its target Matrix metalloproteinase-14 (Homo sapiens, UniProt P50281). Kind of data set: Inhibition of MMP14 (unknown origin).
Another data set addresses Stromelysin-1 (Homo sapiens, UniProt P08254). Briefly: Inhibition of MMP3 (unknown origin).
For the next data set, the target named is Collagenase 3 (Homo sapiens, UniProt P45452). Kind of data set: Inhibition of MMP13 (unknown origin).
Data set [10] concerns Mus musculus. Kind of data set: Antiinflammatory activity in topically applied oxazolone-induced chronic skin inflammation hairless SKH1 mouse model assessed as decrease in skin lesions applied topically for 10 days in combination with oxazolone. Format: functional, organism-based.
The target of data set [11] is Disintegrin and metalloproteinase domain-containing protein 17 (Homo sapiens, UniProt P78536). Kind of data set: Inhibition of recombinant human TACE catalytic domain using Mca-Pro-Leu-Ala-Gln-Ala-Val-Dpa-Arg-Ser-Ser-Ser-Arg-NH2 as substrate after 2 hrs by fluorescence assay.
Data set [12] concerns the target Voltage-gated inwardly rectifying potassium channel KCNH2 (Homo sapiens, UniProt Q12809). Briefly: Inhibition of human ERG expressed in CHO-K1 cells assessed as reduction in tail current amplitude by patch clamp assay. Format: cell-based.

≈ marks a conversion by molar mass, not a printed value. Calls of active or inactive are those of the source. The rule behind the calls is not given here. Where only a bound is given, the exact number is not on record here.

Stromelysin-1, sequence (P08254 whole entry): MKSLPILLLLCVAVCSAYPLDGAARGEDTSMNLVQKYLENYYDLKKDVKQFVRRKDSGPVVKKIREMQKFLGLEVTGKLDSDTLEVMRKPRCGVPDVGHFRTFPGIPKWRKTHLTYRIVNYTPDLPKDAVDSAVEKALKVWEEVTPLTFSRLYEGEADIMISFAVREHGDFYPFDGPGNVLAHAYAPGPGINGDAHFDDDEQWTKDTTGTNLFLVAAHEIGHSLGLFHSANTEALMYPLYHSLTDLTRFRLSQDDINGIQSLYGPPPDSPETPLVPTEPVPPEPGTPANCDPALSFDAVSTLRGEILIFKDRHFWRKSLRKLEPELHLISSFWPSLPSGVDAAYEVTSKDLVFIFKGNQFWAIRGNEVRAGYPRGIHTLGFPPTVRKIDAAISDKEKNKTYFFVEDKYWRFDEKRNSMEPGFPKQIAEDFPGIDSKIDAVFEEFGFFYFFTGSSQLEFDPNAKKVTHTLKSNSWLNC
Disintegrin and metalloproteinase domain-containing protein 17, sequence (P78536 whole entry, the tested form may be a part): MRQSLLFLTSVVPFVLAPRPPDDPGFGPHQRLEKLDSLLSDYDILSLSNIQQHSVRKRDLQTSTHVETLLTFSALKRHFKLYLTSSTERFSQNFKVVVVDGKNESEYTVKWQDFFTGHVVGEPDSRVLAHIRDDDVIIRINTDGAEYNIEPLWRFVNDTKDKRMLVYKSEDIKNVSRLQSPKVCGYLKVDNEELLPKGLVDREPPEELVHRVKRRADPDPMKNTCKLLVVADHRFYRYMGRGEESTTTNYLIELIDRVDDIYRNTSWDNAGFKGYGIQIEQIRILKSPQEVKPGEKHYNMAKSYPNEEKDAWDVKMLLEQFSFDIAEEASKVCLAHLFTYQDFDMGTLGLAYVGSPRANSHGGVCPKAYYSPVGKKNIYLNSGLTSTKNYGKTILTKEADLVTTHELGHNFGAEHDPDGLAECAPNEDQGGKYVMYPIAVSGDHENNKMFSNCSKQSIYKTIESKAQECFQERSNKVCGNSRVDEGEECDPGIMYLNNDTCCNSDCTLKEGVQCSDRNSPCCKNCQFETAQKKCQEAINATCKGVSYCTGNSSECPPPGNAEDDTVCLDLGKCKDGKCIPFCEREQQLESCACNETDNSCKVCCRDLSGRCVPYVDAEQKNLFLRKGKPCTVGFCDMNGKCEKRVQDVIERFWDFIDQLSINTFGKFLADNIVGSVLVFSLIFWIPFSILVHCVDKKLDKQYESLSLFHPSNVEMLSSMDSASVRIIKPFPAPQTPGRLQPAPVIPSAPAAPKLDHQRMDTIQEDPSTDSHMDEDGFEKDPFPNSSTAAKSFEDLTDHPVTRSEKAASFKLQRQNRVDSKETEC
Voltage-gated inwardly rectifying potassium channel KCNH2, sequence (Q12809 whole entry): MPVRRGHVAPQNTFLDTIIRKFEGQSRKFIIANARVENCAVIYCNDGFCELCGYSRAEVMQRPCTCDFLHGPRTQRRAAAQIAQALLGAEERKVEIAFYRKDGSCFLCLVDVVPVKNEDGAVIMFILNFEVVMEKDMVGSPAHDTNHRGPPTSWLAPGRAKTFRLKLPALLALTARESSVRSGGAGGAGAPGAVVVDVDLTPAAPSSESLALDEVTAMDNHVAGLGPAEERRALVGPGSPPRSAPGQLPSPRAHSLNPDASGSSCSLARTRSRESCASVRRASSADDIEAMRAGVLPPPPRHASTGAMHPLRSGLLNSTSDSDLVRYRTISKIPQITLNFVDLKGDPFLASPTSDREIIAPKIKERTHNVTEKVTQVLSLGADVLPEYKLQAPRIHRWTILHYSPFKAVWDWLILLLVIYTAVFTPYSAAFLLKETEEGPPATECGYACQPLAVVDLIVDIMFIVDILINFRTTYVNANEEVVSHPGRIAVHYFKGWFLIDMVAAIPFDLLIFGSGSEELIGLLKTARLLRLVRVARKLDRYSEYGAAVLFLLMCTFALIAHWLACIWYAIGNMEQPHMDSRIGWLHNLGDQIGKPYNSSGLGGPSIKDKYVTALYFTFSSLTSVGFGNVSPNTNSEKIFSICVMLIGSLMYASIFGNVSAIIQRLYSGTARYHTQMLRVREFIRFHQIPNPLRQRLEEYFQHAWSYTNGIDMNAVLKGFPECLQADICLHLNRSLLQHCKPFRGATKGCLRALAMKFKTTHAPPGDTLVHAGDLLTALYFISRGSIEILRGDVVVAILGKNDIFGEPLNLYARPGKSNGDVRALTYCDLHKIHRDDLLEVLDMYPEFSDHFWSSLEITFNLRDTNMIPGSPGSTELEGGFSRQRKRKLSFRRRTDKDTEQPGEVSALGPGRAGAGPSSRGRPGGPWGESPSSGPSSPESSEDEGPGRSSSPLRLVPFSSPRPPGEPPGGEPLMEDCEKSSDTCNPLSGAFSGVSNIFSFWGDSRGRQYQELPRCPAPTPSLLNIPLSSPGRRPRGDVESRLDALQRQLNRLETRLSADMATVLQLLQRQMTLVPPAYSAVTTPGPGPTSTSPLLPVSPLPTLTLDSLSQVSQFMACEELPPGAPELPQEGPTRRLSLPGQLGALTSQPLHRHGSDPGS

Turning to `Cc1cc(COc2ccc(S(=O)(=O)N(C)C3(C(=O)NO)CN(C(=O)C(C)C)C3)cc2)c2ccccc2n1`, the outcome in the data set with Mus musculus [1] and in the data set on Mus musculus [6] was Active. In addition, the solubility at 24 h in [2] was 84 µM (≈ 44.2 µg/mL). Besides, the Activity result in the data set on Salmonella typhimurium [3] is “Non-Toxic”; in the data set with Salmonella typhimurium [4], “Non-Toxic”; with Mus musculus [10] it was “Dose-dependent effect”. Besides, the hepatocyte CLint at 1 µM in data set [5] was 8 µL/min/1e6 cells. Further, the selectivity ratio in data set [7] stood at 1. The IC50 in [8] is 0.95 µM; in data set [9], 6.5 µM; on Stromelysin-1, 0.09 µM; on Collagenase 3, 1.3 µM; in data set [11], 0.004 µM; in [12] it was > 100 µM.
`Cc1cc(COc2ccc(S(=O)(=O)N(C)C3(C(=O)NO)CN(C(=O)CC(C)C)C3)cc2)c2ccccc2n1`: the solubility at 24 h in data set [2] was 62 µM (≈ 33.5 µg/mL). Further, the Activity result in the data set on Salmonella typhimurium [3] and in the data set with Salmonella typhimurium [4] was “Non-Toxic” in each case. Further, the hepatocyte CLint at 1 µM in data set [5] was found to be 14 µL/min/1e6 cells. Also, in [7], the selectivity ratio stood at 1. For the same compound, the IC50 in data set [8] was 1.3 µM; in [9], 4.4 µM; on Stromelysin-1, 0.09 µM; on Collagenase 3, 1.2 µM; in data set [11], 0.007 µM; in data set [12], > 100 µM.

Values taken from ChEMBL document CHEMBL4184149, “Discovery and process development of a novel TACE inhibitor for the topical treatment of psoriasis” (Bioorg Med Chem, 2018).
